“Also recorded” adds a separate entry of the source.

Assay [1] concerns BRAF-V600E/NRAS mutant cells derived from melanoma patients resistant to BRAF/MEK inhibitors. Kind of assay: Cell viability, Alamar Blue assay. The assay is classed as cell-based, human. The following applies: 7 days; relative to DMSO-treated cells. On the procedure: (§1) FIGS. 2a-h. […] (FIGS. 2a-c) NRASmut melanoma cells (FIG. 2a), BRAF-V600E/NRAS mutant cells derived from melanoma patients resistant to BRAF/MEK inhibitors (FIG. 2b), or non-transformed melanocytes and fibroblasts (FIG. 2c) were treated with 6-thio-dG for 7 days. Cell viability was measured by Alamar Blue assay and calculated relative to DMSO-treated cells. (FIG. 2d) NRASmut melanoma cells and non-transformed human fibroblasts were treated with 1 or 5 μM 6-thio-dG for 7 or 14 days. Cell death was assessed by PSVUe staining. Percent of apoptotic cells is shown. (FIG. 2e) Cells were treated with DMSO or 1 μM 6-thio-dG for 14 days and telomere length was assessed by Southern blotting of TRF. Mean TRF length expressed as kilobase pairs is indicated at the bottom. (FIGS. 2f-g) Cells were treated with 1 μM 6-thio-dG for 7 days. (FIG. 2f) ROS production was measured by H2DCFDA fluorescence and normalized to MSO treated cells. (FIG. 2g) DNA damage was assessed by γH2AX staining. […] Tumor volume was measured and average tumor volume (n=4)±SEM was plotted vs. time.
(§2) Cell culture, viability and cell death assays. […] Cell viability was assessed following 6 hr incubation with 500 μM Alamar Blue (ThermoFisher Scientific, Waltham, Mass.) using an EnVision Xcite Multilabel plate reader (Perkin Elmer, Waltham, Mass.). […]
In general terms: The colour change of resazurin is a common sign of viable cells or microbes.

Assay [2] concerns NRAS mutant melanoma cells. Briefly: Cell viability, Alamar Blue assay. It counts as cell-based, human. The following applies: 7 days; relative to DMSO-treated cells. On the procedure:
as §1, §2

Assay [3] concerns NRAS mutant melanoma cells. Kind of assay: Relative cell number, Crystal Violet assay. It counts as cell-based, human. The following applies: 6, 12 or 18 days; relative to DMSO. On the procedure: Supplementary FIGS. 8a-d. NRAS mutant melanoma cells are sensitive to the telomere uncapping agent 6-thio-dG. NRAS^mut melanoma cells were treated with 6-thio-dG for 6, 12 or 18 days. (Supplementary FIG. 8a) Relative cell number was assessed by […] Violet assay and calculated relative to DMSO-treated cells. Data represent average of three independent experiments +/-SD. (Supplementary FIG. 8b) Representative pictures of cells treated with 6-thio-dG for the indicated days and stained with Crystal Violet. (Supplementary FIG. 8c) NRAS^mut cells were treated with 6-thio-dG for 7 days and telomere-induced foci (TIF) were determined by indirect immunofluorescence combined with fluorescence in situ hybridization (FISH). Cells were considered TIF-positive when for or more co-localizing foci of telomeres and γ-H2AX were found. (Supplementary FIG. 8d) Quantification of TIF assay. Cells were scored as TIF-positive when four or more γ-H2AX foci (green) were co-localizing with telomere foci (red). Data represent average of […]. P values were calculated by unpaired Student's t-test.

Assay [4] relates to NRAS mutant melanoma cells. Kind of assay: Cell death by flow cytometry (PSVue or Annexin V/PI). The assay is classed as cell-based. On the technique in general: Flow cytometry measures light scatter and fluorescence of single cells or particles in a stream.
Method: (FIG. 2d) NRASmut melanoma cells and non-transformed human fibroblasts were treated with 1 or 5 μM 6-thio-dG for 7 or 14 days. Cell death was assessed by PSVUe staining. Percent of apoptotic cells is shown. […] (FIGS. 2f-g) Cells were treated with 1 μM 6-thio-dG for 7 days. […] Data represent average from three independent experiments±SEM. *p<0.05; **p<0.01; ***p<0.005 in unpaired Student's t-test.
(FIG. 4a) NRASmut melanoma cells transduced with TERT shRNA were treated 7 days post infection with 5 μM Gamitrinib (Gam) for 48 h. Cell death was assessed by Annexin V and PI staining. (FIG. 4b) NRASmut melanoma cells and non-transformed fibroblasts were treated with 1 μM 6-thio-dG for 5 days. At day 5, culture medium was replaced and cells treated with 1 μM 6-thio-dG plus 5 μM Gam for two more days. Cells were stained with Annexin V and PI and percent cell death was determined by flow cytometry. […] Data represent average of three independent experiments ±SEM. P values were calculated using unpaired Student's t-test; * p<0.05; ***p<0.005.
(Supplementary FIG. 10a) NRASmut melanoma cells were treated with 6-thio-dG (1 μ) for 7 days total. At day 5, culture medium was replaced and cells were treated with 1 μM 6-thio-dG plus 1 mM Phenformin for two more days. Percent cell death was determined by flow cytometry following staining of cells with Annexin V and Propidium iodide. Data represent average of three independent experiments +/−SEM. *p<0.05 in unpaired Student's t-test.
In assay [5] the test system is NRAS mutant melanoma cells. Briefly: DNA damage, γH2AX staining. The assay is classed as cell-based, human. Conditions: 1 μM for 7 days. The procedure:
FIGS. 2a-h. […] (FIGS. 2a-c) NRASmut melanoma cells (FIG. 2a), BRAF-V600E/NRAS mutant cells derived from melanoma patients resistant to BRAF/MEK inhibitors (FIG. 2b), or non-transformed melanocytes and fibroblasts (FIG. 2c) were treated with 6-thio-dG for 7 days. Cell viability was measured by Alamar Blue assay and calculated relative to DMSO-treated cells. (FIG. 2d) NRASmut melanoma cells and non-transformed human fibroblasts were treated with 1 or 5 μM 6-thio-dG for 7 or 14 days. Cell death was assessed by PSVUe staining. Percent of apoptotic cells is shown. (FIG. 2e) Cells were treated with DMSO or 1 μM 6-thio-dG for 14 days and telomere length was assessed by Southern blotting of TRF. Mean TRF length expressed as kilobase pairs is indicated at the bottom. (FIGS. 2f-g) Cells were treated with 1 μM 6-thio-dG for 7 days. (FIG. 2f) ROS production was measured by H2DCFDA fluorescence and normalized to MSO treated cells. (FIG. 2g) DNA damage was assessed by γH2AX staining. Data represent average from three independent experiments±SEM. *p<0.05; **p<0.01; ***p<0.005 in unpaired Student's t-test. […] Tumor volume was measured and average tumor volume (n=4)±SEM was plotted vs. time.
DNA damage and telomere dysfunction assay (TIF). […] Mean fluorescence staining was quantified by flow cytometry. […]

Assay [6] relates to detoxifying enzymes such as SOD2, GPX1 and UCP2. Kind of assay: mRNA levels of detoxifying enzymes by qRT-PCR. The assay is classed as cell-based, human. The following applies: 1 μM 6-thio-dG for 7 days. On the procedure: FIGS. 3a-g. Telomere dysfunction enhances oxidative stress leading to upregulation of an antioxidant program. (FIGS. 3a-d) NRASmut melanoma cells were transduced with TERT shRNA (FIG. 3a, FIG. 3c) or treated with 1 μM 6-thio-dG for 7 days (FIG. 3b, FIG. 3d). mRNA levels of the indicated genes were quantified by qRT-PCR (FIG. 3a, FIG. 3b). Mitochondrial superoxide production was measured by MitoSox Red fluorescence (FIG. 3c, FIG. 3d) and expressed as fluorescence relative to vector or DMSO controls. (FIG. 3e) NRASmut melanoma cells were treated with 1 μM of 6-thio-dG for the indicated times and SOD2 protein levels measured by Western blotting. (FIG. 3f) SOD2 was silenced using shRNA. Transduced M93-047 cells were treated with DMSO or 1 μM of 6-thio-dG and cell death was assessed by Annexin V/PI straining. (FIG. 3g) M93-047 cells were transduced with a SOD2 lentiviral construct or empty vector control (pLX304). Transduced cells were treated with increasing doses (1, 2.5 and 5 μM) of 6-thio-dG for 7 days and cell death was assessed. Data represent average from three independent experiments±SEM. *p<0.05; **p<0.01; ***p<0.005 in unpaired Student's t-test.

`Nc1nc2c(ncn2[C@H]2C[C@H](O)[C@@H](CO)O2)c(=S)[nH]1` [6-thio-dG, 6-thio-2′-deoxy-guanosine]: the cell viability result in assay [1] is “impaired the viability”. The cell viability entry in assay [2] is listed as “impairs viability; also recorded: impaired the viability”. Also, the “relative cell number (sensitivity)” value in assay [3] is “sensitive”. Besides, the cell death entry in assay [4] (1 or 5 μM for 7 or 14 days, PSVue staining) is “led to cell death”. Besides, in assay [4] (SOD2 lentiviral construct, 1, 2.5 and 5 μM 6-thio-dG), the “apoptosis in SOD2 overexpressing cells” value was “attenuated the apoptosis-inducing effects”. The “apoptosis in SOD2 depleted cells” value in assay [4] (SOD2 shRNA, 1 μM 6-thio-dG, M93-047, WM3000) was “enhanced the ability of 6-thio-dG to induce apoptosis”. In assay [5], the γH2AX levels result is “increased levels”. In assay [6], the GPX1 expression entry is given as “upregulation”, the SOD2 expression entry is on record as “upregulation” and the UCP2 expression entry is “upregulation”.

The values are drawn from US20210113602A1, “USE OF 6-THIO-2'-DEOXYGUANOSINE (6-THIO-dG) TO TREAT MELANOMA” (The Board of Regents of the University of Texas System, priority 2018, published 2021).
